Results as given in patent US20100197914A1, “Purine Derivatives as Adenosine Al Receptor Ligands” (priority 2007, published 2010).

Target: T1, adenosine A1 receptor (Homo sapiens, UniProt P30542)
T1 sequence (P30542 1-326): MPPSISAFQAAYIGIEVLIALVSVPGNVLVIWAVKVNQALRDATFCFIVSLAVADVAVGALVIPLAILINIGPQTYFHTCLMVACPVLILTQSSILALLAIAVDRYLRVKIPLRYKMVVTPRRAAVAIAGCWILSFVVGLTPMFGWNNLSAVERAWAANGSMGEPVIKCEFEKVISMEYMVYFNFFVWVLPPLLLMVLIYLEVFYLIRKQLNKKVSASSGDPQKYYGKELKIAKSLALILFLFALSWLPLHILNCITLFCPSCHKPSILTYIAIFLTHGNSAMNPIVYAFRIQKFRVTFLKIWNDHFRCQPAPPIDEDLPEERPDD
Test: In vitro functional activity based on the stimulation of [35S]-GTPγS binding (SPA, agonist format)
Type: biochemical
Conditions: mean of >2 measurements; A1 membranes, [35S]-GTPγS SPA assay; read-out: Mean pEC50 (converted)
Description: In Vitro Functional Activity at the Human a Receptor Based on the Stimulation of [^35S]-GTPγS Binding
In brief the assay is based on the conventional GTPγS binding assay described by ([Lorenzen A, Guerra L, Vogt H, et al, (1996)] Interaction of full and partial agonists of the A1 adenosine receptor with receptor/G protein complexes in rat brain membranes. Mol Pharmacol. 49(5):915-26) The assay is run as a SPA assay where the A1 membranes are captured by wheatgerm agglutinin (WGA) SPA beads, through a specific interaction between WGA and carbohydrate residues of glycoprotein's on the surfaces for the membranes. Upon receptor stimulation, [^35S]-GTPγS binds specifically to the alpha subunit of the G-protein thus bringing the [^35S]-GTPγS into close proximity with the SPA beads. Emitted β particles from the [^35S]-GTPγS excite the scintillant in the beads and produce light. […] The assays were performed in a final volume of 250 μL per well in a white non-binding surface 96-well Optiplates and could be run in either an agonist format, or an antagonist format (pre-incubation with an EC50 concentration of the appropriate receptor agonist).

EC50 [nM]	Compound
40.1	O=C(CO)N[C@H]1C[C@@H](n2cnc3c(NC4CCCC4)nc(Cl)nc32)[C@H](O)[C@@H]1O [Example 4, N-[(1S,2R,3S,4R)-4-(2-Chloro-6-cyclopentylamino-purin-9-yl)-2,3-dihydroxy-cyclopentyl]-2-hydroxy-acetamide]
47.9	CCC(=O)N[C@H]1C[C@@H](n2cnc3c(NC4CCCC4)ncnc32)[C@H](O)[C@@H]1O [Example 1, N-[(1S,2R,3S,4R)-4-(6-Cyclopentylamino-purin-9-yl)-2,3-dihydroxy-cyclopentyl]-propionamide]
67.7	CCC(=O)N[C@H]1C[C@@H](n2cnc3c(NC4CCCC4)nc(Cl)nc32)[C@H](O)[C@@H]1O [Example 2, N-[(1S,2R,3S,4R)-4-(2-Chloro-6-cyclopentylamino-purin-9-yl)-2,3-dihydroxy-cyclopentyl]-propionamide]
97.9	O=C(CO)N[C@H]1C[C@@H](n2cnc3c(NC4CCCC4)ncnc32)[C@H](O)[C@@H]1O [Example 3, N-[(1S,2R,3S,4R)-4-(6-Cyclopentylamino-purin-9-yl)-2,3-dihydroxy-cyclopentyl]-2-hydroxy-acetamide]
